Reference: patent US20240279227A1, “FUSED HETEROCYCLIC DERIVATIVES” (Janssen Sciences Ireland Unlimited Company, priority 2021, published 2024)

Assays:
[1] = Human liver microsome stability; assay type: in vitro ADME; conditions: 1 μM compound, NADPH 1 mM, pH 7.4, 37° C., 0-60 min; for HLM Metabolism t1/2: pooled human liver microsomes 0.5 mg/mL; for half-life at 1 μM: human, pooled human liver microsomes, pH 7.4, pooled human liver microsomes 0.5 mg/mL, read-out: HLM Metabolism t1/2
Summary of the method: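 Pooled human liver microsomes (0.5 mg/mL) incubated at 37 °C with 1 μM compound in 0.1 M phosphate pH 7.4, 1 mM MgCl2; 1 mM NADPH starts reaction. Samples quenched in acetonitrile at 0–60 min, analysed by LC-MS against internal standard; half-life from slope of ln peak-area ratio versus time.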

[2] = system: HepG2 or HepG2.117 cells; assay: Cytotoxicity, ATPlite Luminescence Assay; assay type: cell-based, human; conditions: 3-days incubation unless marked with *, ATPlite viability
Summary of the method: (§1)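 Cells were exposed to compounds for 3 or 4 days, after which viability was determined by ATP-based luminescence (ATPlite).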

[3] = system: HBV; assay: Anti-HBV activity in HepG2.117 cell line (intracellular HBV DNA, real-time PCR); assay type: cell-based, hepatitis B virus; conditions: HepG2.117 cells, HBV replication induced, 3 days of treatment, intracellular HBV DNA by real-time PCR
Summary of the method: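 HepG2.117 cells (Tet-off, doxycycline-free HBV replication) induced for HBV replication, then exposed to serially diluted compound for 3 days. Intracellular HBV DNA quantified by real-time PCR with HBV-specific primers and probe.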

[4] = Cytotoxicity, ATPlite Luminescence Assay; assay type: cell-based, human; conditions: human, HepG2 or HepG2.117 cells, 3-days incubation unless marked with *, ATPlite viability
Summary of the method: as §1

| SMILES | HLM Metabolism t1/2 [1] [h] | CC50 [2] [µM] | EC50 [3] [µM] | half-life at 1 μM [1] [h] | CC50 [4] [µM] |
| --- | --- | --- | --- | --- | --- |
| CNC(=O)[C@@H]1CN(C(C)c2cccc(Cl)n2)C(=O)c2c3c(nn21)C[C@@H](C)N(C(=O)c1ccc(Cl)c(Cl)c1)C3 (single isomer, unassigned) [Compound 38B, (3R,7S)-9-((S*)-1-(6-chloropyridin-2-yl)ethyl)-2-(3,4-dichlorobenzoyl)-N,3-dimethyl-10-oxo-1,2,3,4,7,8,9,10-octahydropyrido[4′,3′:3,4]pyrazolo[1,5-a]pyrazine-7-carboxamide] | 2.4 | > 50 | 0.04 |  |  |
| CCC(c1ccc(S(C)(=O)=O)cc1)N1C[C@@H](C(=O)NC)n2nc3c(c2C1=O)CN(C(=O)c1ccc(Cl)c(Cl)c1)[C@H](C)C3 (single isomer, unassigned) [Compound 22B, (3R,7S)-2-(3,4-dichlorobenzoyl)-N,3-dimethyl-9-((S*)-1-(4-(methylsulfonyl)phenyl)propyl)-10-oxo-1,2,3,4,7,8,9,10-octahydropyrido[4′,3′:3,4]pyrazolo[1,5-a]pyrazine-7-carboxamide] | >3 | > 50 | 0.05 |  |  |
| CC(c1ccc(OC(F)F)nc1)N1C[C@@H](C(N)=O)n2nc3c(c2C1=O)CN(C(=O)c1ccc(Cl)c(Cl)c1)[C@H](C)C3 (single isomer, unassigned) [Compound 12B, (3R,7S)-2-(3,4-dichlorobenzoyl)-9-((S*)-1-(6-(difluoromethoxy)pyridin-3-yl)ethyl)-3-methyl-10-oxo-1,2,3,4,7,8,9,10-octahydropyrido[4′,3′:3,4]pyrazolo[1,5-a]pyrazine-7-carboxamide] | >3 | 27.4 | 0.027 |  |  |
| CNC(=O)[C@@H]1CN(C(C)c2cc(F)ccn2)C(=O)c2c3c(nn21)C[C@@H](C)N(C(=O)c1ccc(Cl)c(Cl)c1)C3 (single isomer, unassigned) [Compound 42B, (3R,7S)-2-(3,4-dichlorobenzoyl)-9-((S*)-1-(4-fluoropyridin-2-yl)ethyl)-N,3-dimethyl-10-oxo-1,2,3,4,7,8,9,10-octahydropyrido[4′,3′:3,4]pyrazolo[1,5-a]pyrazine-7-carboxamide] | >3 | > 50 | 0.02 |  |  |
| CNC(=O)[C@@H]1CN(C(C)c2ccc(OC(F)F)nc2)C(=O)c2c3c(nn21)C[C@@H](C)N(C(=O)c1ccc(Cl)c(Cl)c1)C3 (single isomer, unassigned) [Compound 11A, (3R,7S)-2-(3,4-Dichlorobenzoyl)-9-((R*)-1-(6-(difluoromethoxy)pyridin-3-yl)ethyl)-N,3-dimethyl-10-oxo-1,2,3,4,7,8,9,10-octahydropyrido[4′,3′:3,4]pyrazolo[1,5-a]pyrazine-7-carboxamide] |  | > 50 | 0.12 | > 3 |  |
| CNC(=O)[C@@H]1CN(C(C)c2ccc(NCC(F)(F)F)nc2)C(=O)c2c3c(nn21)C[C@@H](C)N(C(=O)c1ccc(Cl)c(Cl)c1)C3 (single isomer, unassigned) [Compound 33B, (3R,7S)-2-(3,4-dichlorobenzoyl)-N,3-dimethyl-10-oxo-9-((S*)-1-(6-((2,2,2-trifluoroethyl)amino)pyridin-3-yl)ethyl)-1,2,3,4,7,8,9,10-octahydropyrido[4′,3′:3,4]pyrazolo[1,5-a]pyrazine-7-carboxamide] | >3 | > 50 | 0.055 |  |  |
| CNC(=O)[C@@H]1CN(C(C)c2ccc(-n3nnc(C)n3)cc2)C(=O)c2c3c(nn21)C[C@@H](C)N(C(=O)c1ccc(Cl)c(Cl)c1)C3 (single isomer, unassigned) [Compound 30B, (3R,7S)-2-(3,4-dichlorobenzoyl)-N,3-dimethyl-9-((S*)-1-(4-(5-methyl-2H-tetrazol-2-yl)phenyl)ethyl)-10-oxo-1,2,3,4,7,8,9,10-octahydropyrido[4′,3′:3,4]pyrazolo[1,5-a]pyrazine-7-carboxamide] | 1.52 | 17.2 | 0.017 |  |  |
| CC(c1ccc(OC(F)F)cc1)N1C[C@@H](C(=O)NC2CC2)n2nc3c(c2C1=O)CN(C(=O)c1ccc(Cl)c(C#N)c1)[C@H](C)C3 (single isomer, unassigned) [Compound 26B, (3R,7S)-2-(4-chloro-3-cyanobenzoyl)-N-cyclopropyl-9-((S*)-1-(4-(difluoromethoxy)phenyl)ethyl)-3-methyl-10-oxo-1,2,3,4,7,8,9,10-octahydropyrido[4′,3′:3,4]pyrazolo[1,5-a]pyrazine-7-carboxamide] | 1.12 | > 50 | 0.09 |  |  |
| CNC(=O)[C@@H]1CN(C(C)c2ccc(N3CCCC3=O)nc2)C(=O)c2c3c(nn21)C[C@@H](C)N(C(=O)c1ccc(Cl)c(Cl)c1)C3 (relative stereo) [Compound 34B, (3R,7S)-2-(3,4-dichlorobenzoyl)-N,3-dimethyl-O-oxo-9-((S*)-1-(6-(2-oxopyrrolidin-1-yl)pyridin-3-yl)ethyl)-1,2,3,4,7,8,9,10-octahydropyrido[4′,3′:3,4]pyrazolo[1,5-a]pyrazine-7-carboxamide] | >3 | > 50 | 0.049 |  |  |
| CNC(=O)[C@@H]1CN(C(C)c2ccc(S(C)(=O)=O)cc2)C(=O)c2c3c(nn21)C[C@@H](C)N(C(=O)c1ccc(Cl)c(C(F)(F)F)c1)C3 (single isomer, unassigned) [Compound 19B, (3R,7S)-2-(4-chloro-3-(trifluoromethyl)benzoyl)-N,3-dimethyl-9-((S*)-1-(4-(methylsulfonyl)phenyl)ethyl)-10-oxo-1,2,3,4,7,8,9,10-octahydropyrido[4′,3′:3,4]pyrazolo[1,5-a]pyrazine-7-carboxamide] | >3 | > 50 | 0.028 |  |  |
| CNC(=O)[C@@H]1CN(C(C)c2ccc(C#N)cc2)C(=O)c2c3c(nn21)C[C@@H](C)N(C(=O)c1ccc(Cl)c(Cl)c1)C3 (single isomer, unassigned) [Compound 23B, (3R,7S)-9-((S*)-1-(4-cyanophenyl)ethyl)-2-(3,4-dichlorobenzoyl)-N,3-dimethyl-10-oxo-1,2,3,4,7,8,9,10-octahydropyrido[4′,3′:3,4]pyrazolo[1,5-a]pyrazine-7-carboxamide] | >3 | > 50 | 0.023 |  |  |
| CNC(=O)[C@@H]1CN(C(C)c2ccc(C(F)F)nc2)C(=O)c2c3c(nn21)C[C@@H](C)N(C(=O)c1ccc(Cl)c(Cl)c1)C3 (single isomer, unassigned) [Compound 36B, (3R,7S)-2-(3,4-dichlorobenzoyl)-9-((S*)-1-(6-(difluoromethyl)pyridin-3-yl)ethyl)-N,3-dimethyl-10-oxo-1,2,3,4,7,8,9,10-octahydropyrido[4′,3′:3,4]pyrazolo[1,5-a]pyrazine-7-carboxamide] | >3 | > 50 | 0.05 |  |  |
| CNC(=O)[C@@H]1CN(C(C)c2ccc(-n3ncnc3C)cn2)C(=O)c2c3c(nn21)C[C@@H](C)N(C(=O)c1ccc(Cl)c(Cl)c1)C3 (single isomer, unassigned) [Compound 41B, (3R,7S)-2-(3,4-dichlorobenzoyl)-N,3-dimethyl-9-((S*)-1-(5-(5-methyl-1H-1,2,4-triazol-1-yl)pyridin-2-yl)ethyl)-10-oxo-1,2,3,4,7,8,9,10-octahydropyrido[4′,3′:3,4] pyrazolo[1,5-a]pyrazine-7-carboxamide] | >3 | > 50 | 0.1 |  |  |
| CNC(=O)[C@@H]1CN(C(C)c2ccc(-c3nnnn3C)cc2)C(=O)c2c3c(nn21)C[C@@H](C)N(C(=O)c1ccc(Cl)c(Cl)c1)C3 (single isomer, unassigned) [Compound 29B, (3R,7S)-2-(3,4-dichlorobenzoyl)-N,3-dimethyl-9-((S*)-1-(4-(1-methyl-1H-tetrazol-5-yl)phenyl)ethyl)-10-oxo-1,2,3,4,7,8,9,10-octahydropyrido[4′,3′:3,4]pyrazolo[1,5-a]pyrazine-7-carboxamide] | >3 | > 50 | 0.082 |  |  |
| CNC(=O)[C@@H]1CN(C(C)c2ccccn2)C(=O)c2c3c(nn21)C[C@@H](C)N(C(=O)c1ccc(Cl)c(Cl)c1)C3 (single isomer, unassigned) [Compound 37B, (3R,7S)-2-(3,4-dichlorobenzoyl)-N,3-dimethyl-10-oxo-9-((S*)-1-(pyridin-2-yl)ethyl)-1,2,3,4,7,8,9,10-octahydropyrido[4′,3′:3,4]pyrazolo[1,5-a]pyrazine-7-carboxamide] | >3 | > 50 | 0.067 |  |  |
| CNC(=O)[C@@H]1CN(C(C)c2cc(F)ccn2)C(=O)c2c3c(nn21)C[C@@H](C)N(C(=O)c1ccc(Cl)c(Cl)c1)C3 (single isomer, unassigned) [Compound 42A, (3R,7S)-2-(3,4-Dichlorobenzoyl)-9-((R*)-1-(4-fluoropyridin-2-yl)ethyl)-N,3-dimethyl-10-oxo-1,2,3,4,7,8,9,10-octahydropyrido[4′,3′:3,4]pyrazolo[1,5-a]pyrazine-7-carboxamide] |  |  | 0.28 | > 3 | > 50 |
